The record followed here is ChEMBL document CHEMBL5729305, “Compounds, salts thereof and methods for treatment of diseases” (2022).

For the assay, the target named is 5-hydroxytryptamine receptor 2A (Homo sapiens, UniProt P28223). As to the kind of experiment: Receptor Selection and Amplification (R-SAT) Assays: R-SAT's were generally performed with 50 ng/well of receptor and 20 ng/well of β-galactosidase plasmid DNA. All receptor constructs used were in the pSI mammalian expression vector (Promega Inc) as described previously. The 5-HT2A receptor gene was amplified by nested PCR (polymerase chain reaction) from brain cDNA using the …. The format is cell-based.

pKi: −log10 of the molar value.

5-hydroxytryptamine receptor 2A, sequence (P28223 whole entry): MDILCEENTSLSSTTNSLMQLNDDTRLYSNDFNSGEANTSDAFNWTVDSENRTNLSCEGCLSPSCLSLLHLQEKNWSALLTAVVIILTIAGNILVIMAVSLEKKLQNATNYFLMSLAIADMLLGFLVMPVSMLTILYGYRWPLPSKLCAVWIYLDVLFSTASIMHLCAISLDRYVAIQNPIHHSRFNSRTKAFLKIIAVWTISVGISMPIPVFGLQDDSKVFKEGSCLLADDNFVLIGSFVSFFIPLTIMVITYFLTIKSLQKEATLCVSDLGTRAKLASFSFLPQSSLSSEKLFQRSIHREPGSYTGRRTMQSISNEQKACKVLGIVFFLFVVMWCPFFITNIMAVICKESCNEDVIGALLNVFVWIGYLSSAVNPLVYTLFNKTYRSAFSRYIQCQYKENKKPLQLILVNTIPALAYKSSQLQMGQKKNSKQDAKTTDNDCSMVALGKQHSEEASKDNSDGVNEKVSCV

Broadly, the pKi is the Ki on a negative log10 scale, so that one unit is a factor of ten. Low values mean a large Ki, high ones a small Ki. Regarding `CC(C)Oc1ccc(CC(=O)N(Cc2ccc(F)cc2F)[C@@H]2CCN(C)C[C@@H]2F)cc1` (mixture of isomers), the pKi was 8.00.
